The text below walks through data of patent US5438130A, “Fucosylated guanosine disulfates as excitatory amino acid antagonists” (priority 1993, dated 1995).

pIC50: −log10 of the molar value. Where two headings read alike, the source gives them in different places.

The target of data set [1] is kainate receptor. To be noted: printed for comparison; source not stated; read-out: IC50 (comparison, non-NMDA antagonists); cited from earlier work.
Data set [2] deals with glutamate-induced current. As to the kind of experiment: Whole cell recording of glutamate-induced current under voltage clamp (HPLC fraction assay). It is filed as cell-based. Particulars: HF7 peak, voltage clamp mode. The procedure:
The components were eluted from the column stepwise with 0%, 2% and 4% acetonitrile in 0.1% TFA for the duration of 45 min., 15 min. and 40 min., respectively, at a flow rate of 2 ml/min. The elution was monitored by absorbance at 214 nm (FIG. 2) and 254 nm. According to the elution profile, fractions were collected manually and, after being dried down and dissolved in an appropriate buffer, were assayed in whole cell recording of glutamate-induced current under the voltage clamp mode (see "Functional Characterization" below for details). […] The other batch of HF7 was also purified with a slightly different program of acetonitrile stepwise elution (1% for 20 min., 2% for 20 min. and 4% for 40 min.), resulting in a shorter operation time without a significant change in the elution profile.

The target in data set [3] is kainate receptor. As to the kind of experiment: Displacement of [3H]-kainate, rat forebrain crude synaptic membranes. To be noted: 50 mM Tris-acetate; 1 hour at 4° C.; FIG. 3; read-out: IC50, displacement of [3H]-kainate binding. The procedure:
The ability of HF7 to block the kainate receptor was tested using a [^3 H]-kainate binding assay. More specifically, a standard receptor binding assay [London, E. D. et al. Molecular Pharmacol. 15:492 (1979)] was performed to determine the extent to which HF7 could displace the binding of radioactive kainate ([^3 H]-kainate, 1.0 mCi/ml, NEN). The membrane source was frozen rat forebrain crude synaptic membranes treated with detergent (0.01% TRITON-X100). Radioligand binding was determined using 50 mM Tris-acetate buffer. Samples were incubated for 1 hour at 4° C. and then filtered over either Whatman GF/B or Schleicher & Schuell glass filters. Non-specific binding was determined using 10^-4 M glutamate. [^3 H]-kainate binding was linear from 50-400 μg protein/tube.
On the technique in general: In a radioligand displacement assay an active substance lowers the binding of a labelled ligand.

Data set [4] deals with ionic currents elicited by glutamate in fish retinal neurons. As to the kind of experiment: Voltage clamp of glutamate-elicited currents in fish retinal neurons. In kind it is cell-based. To be noted: glutamate 50μM.
Another data set concerns kainate receptors. As to the kind of experiment: Voltage clamp of kainate-elicited currents in fish retinal horizontal cells. In kind it is cell-based. The text has this:
In this experiment, kainate currents were obtained from primary cultures of fish retinal horizontal cells using standard whole cell voltage clamp techniques [Hamill, O. P. et al. Pflugers Archives 391:85 (1981)]. For recordings cells were maintained in a physiological saline containing (in mM) NaCl, 145; KCl, 2.5; CaCl2, 2.5; MgSO4, 1.0; glucose, 10; HEPES, 10, pH 7.5). Cells were held near resting potential (Vh =-60 mV). Kainate current was elicited by superfusion of a solution of physiological saline solution containing 25μM kainate.
(§1) Two sets of experiments were conducted to determine the concentration dependence of both kainate and quisqualate currents to HF7. Each experiment was conducted in a manner similar to that in which the FIG. 4 experiment was conducted. Inward currents were elicited by bath perfusion of either 25μM kainate or by 10μM quisqualate. Six doses of HF7 were utilized for each set of experiments. Each dose was tried on three different cells. Responses to HF7 were calculated as a percent of control kainate current. […] Each point in FIG. 5 is the mean of measurement from three different cells.

Data set [5] deals with quisqualate currents in fish horizontal cells. As to the kind of experiment: Voltage clamp of quisqualate-elicited currents in fish retinal horizontal cells. To be noted: quisqualate 10μM. In kind it is cell-based. The procedure: as §1
The subject of data set [6] is L-type calcium currents in N1E-115 murine neuroblastoma cells. As to the kind of experiment: L-type calcium currents in N1E-115 neuroblastoma cells, whole cell voltage clamp. It is filed as cell-based. The procedure:
(§2) L-type calcium currents were obtained from cultured N1E-115 murine neuroblastoma cells using standard whole cell voltage clamp techniques [Hamill, O. P. et al. Pflugers Archives 391:85 (1981)]. For recording inward currents, external calcium was substituted with barium. Cells were maintained in a external recording solution containing TEA.Cl, 130 mM; BaCl2, 5 mM; glucose, 10 mM; HEPES, 10 mM; tetrodotoxin, 1μM; pH 7.4). The pipette solution contained CsCl, 115 mM; EGTA, 10 mM; HEPES, 10 mM; Mg.ATP, 4 mM.
The results from one experiment can be seen in FIG. 6. A depolarizing test pulse to +10 mV elicited an inward current of ~240 pA, which was reduced by 20% by pressure-ejection (6 psi) of 22μM HF7. The effects of HF7 blockade were partially reversible (60% recovery) subsequent to washout of HF7. The voltage protocol is shown in the inset. Cells were held at Vh =-50 mV. L-type currents were evoked following a depolarizing voltage step to +10 mV.
(§3) Two sets of experiments were conducted to determine the concentration dependence of both L- and T-type calcium currents to HF7. Each experiment was conducted in a manner similar to that in which the FIG. 6 experiment was performed. Inward L-type currents were elicited by depolarizing test pulses to +10 mV from a resting potential of -50 mV. Inward T-type currents were elicited by depolarizing test pulses to -25 mV from a resting potential of -90 mV. Six doses of HF7 were utilized for each set of experiments. Each dose was tried on three different cells. Responses to HF7 were calculated as percent inhibition of control current. Negative values represent current levels that were greater than control.

Data set [7] has as its system T-type calcium currents in N1E-115 murine neuroblastoma cells. As to the kind of experiment: T-type calcium currents in N1E-115 neuroblastoma cells, whole cell voltage clamp. It is filed as cell-based. To be noted: -90 mV to -25 mV; especially between 0 and 90μM; FIG. 7. The procedure:
as §2, §3

For data set [8], the system named is delayed neuronal degeneration following transient forebrain ischemia. To be noted: cited from earlier work.
For data set [9] the following is noted: in vivo; cited from earlier work.
A further data set has as its system stroke. To be noted: cited from earlier work.
For data set [10] the following is noted: in vivo; cited from earlier work. This is another data set of the same source.

In the case of `N#Cc1cc2[nH]c(=O)c(=O)[nH]c2cc1[N+](=O)[O-]` [CNQX], on kainate receptor [1], the pIC50 is roughly 5.70.
Consider `O=c1[nH]c2cc([N+](=O)[O-])c([N+](=O)[O-])cc2[nH]c1=O` [DNQX], for which the pIC50 on kainate receptor [1] was roughly 5.70.
As for `CC(=O)OC1C(C)OC(O[C@@H]2[C@H](OS(=O)(=O)O)[C@@H](COS(=O)(=O)O)O[C@H]2n2cnc3c(=O)[nH]c(N)nc32)C(O)C1O` (stereo partly shown) [HF7], the “activity on glutamate-induced current” value in data set [2] was “found to be active”. Moreover, the pIC50 at kainate receptor [3] was roughly 4.68; in the data set with kainate receptors (kainate 25μM, mean of three cells per dose, FIG. 5, read-out: IC50, kainate current) it was roughly 4.22; in [5] (mean of three cells per dose, FIG. 5, read-out: IC50, quisqualate current), roughly 4.22. In addition, in data set [4], the “inhibition of ionic currents elicited by glutamate” value is reported as “reversibly inhibited”. Besides, the “effect on kainate-elicited inward current” value in the data set with kainate receptors (approximately 180μM HF7, pressure-ejection, Vh = -60 mV, kainate 25μM) was “virtually eliminated”. In addition, in the data set on kainate receptors (kainate 25μM), the “inhibition of ionic currents elicited by kainate” value is “reversibly inhibited”. In the data set on kainate receptors (subsequent to washout), the “reversibility of HF7 blockade of kainate current” value is recorded as “fully reversible”. In addition, the “inhibition of the kainate response” value in the data set on kainate receptors (~200μM HF7, FIG. 4, kainate 25μM) is given as “near-complete inhibition”. The “inhibition of ionic currents elicited by quisqualate” value in data set [5] is “reversibly inhibited”. The “reduction of L-type inward current” value in data set [6] (22μM HF7, Vh = -50 mV, test pulse to +10 mV, FIG. 6) came out at 20%. In addition, the “recovery of L-type current after washout” value in [6] (subsequent to washout of 22μM HF7, partially reversible) was determined as 60%. Further, the “concentration dependence of L-type current inhibition” value in data set [6] (throughout the concentration range used, -50 mV to +10 mV, FIG. 7) is reported as “inhibited in a concentration dependent manner”. For the same molecule, the “effect on T-type current” value in data set [7] is on record as “much more variable”.
For `NS(=O)(=O)c1cccc2c1c([N+](=O)[O-])cc1nc(O)c(O)nc12` [NBQX, 2,3-dihydroxy-6-nitro-7-sulfamoyl-benzo(F)quinoxaline], in data set [8] (administered several hours after the ischemic insult), the “protection on delayed administration” value is given as “protection was observed”. Also, the “prevention of delayed neuronal degeneration following transient forebrain ischemia” value in data set [8] (gerbils and rats, relatively large systemic doses) is “dramatically effective”. In addition, the “crossing of the blood-brain barrier” value in data set [9] was “only in minute amounts”.
Regarding `COCCOC(=O)C1=C(C)NC(C)=C(C(=O)OC(C)C)C1c1cccc([N+](=O)[O-])c1` (stereo not shown) [nimodipine], the “improvement in the outcome of stroke” value in the data set on stroke (clinical trials) was “Modest improvement”. Moreover, in the data set on stroke (in vivo), the cardiovascular side effects entry is “significant cardiovascular side effects”. Moreover, the “toxicity relative to NMDA antagonists” value in data set [10] is recorded as “less toxic than the NMDA antagonists”.

What is called pIC50 is −log10 of the IC50, conventionally taken in molar units.
